Results on 32 molecules are retold here after publication PMC6792352, “Limited Chemical Structural Diversity Found to Modulate Thyroid Hormone Receptor in the Tox21 Chemical Library” (Environmental Health Perspectives, 2019).

Structures are written as SMILES. Counter-ions that a name gives are not always drawn. A value given as a limit tells only on which side of the number the result lay.

This series can be described thus: in vitro. The note with it: rat, gh3-tre-luc cells.

The CC50 is the concentration at which the toxic effect on the cells reaches its halfway point. Read a low CC50 as greater toxicity to the cells. In turn, `C[C@@H](O)[C@H]1C(=O)N2C(C(=O)O)=C(S[C@@H]3CN[C@H](CNS(N)(=O)=O)C3)[C@H](C)[C@H]12` [Doripenem] returned a CC50 at 24 h (AC50 (uM) modified / 1000) greater than 50 µM.

Consider `C[C@]12CC[C@H]3[C@@H](CC=C4C[C@@H](O)CC[C@@]43C)[C@@H]1CC[C@@H]2O` [Androstenediol], for which the CC50 at 24 h (AC50 (uM) modified / 1000, Tox21_110001=Tox21_112495, viability, 1 nM T3 present, 24 h) is greater than 50 µM.

The molecule `CCCC1CCCC(=O)O1` (centres unmarked) [delta-Octanolactone] had a CC50 at 24 h (AC50 (uM) modified / 1000) greater than 90 µM.

Molecule `CCCCCCCCCCCCCCCCOP(=O)([O-])OCC[N+](C)(C)C` [Miltefosine] yielded a CC50 at 24 h (AC50 (uM) modified / 1000) greater than 50 µM.

The molecule `C=CCCCCCCCCC(=O)OCCCC` [Butyl undec-10-enoate] had a CC50 at 24 h (AC50 (uM) modified / 1000) greater than 90 µM.

The molecule `CCCCCCCCCCCCCCCCCC[N+](C)(C)Cc1ccccc1` [N,N-Dimethyl-N-benzyl-N-octadecylammonium chloride] showed a CC50 at 24 h (AC50 (uM) modified / 1000) of 11.4 µM.

As for `CCCCCCCCCCCCCCN(CCO)CCO` [2,2'-(Tetradecylimino)diethanol], the CC50 at 24 h (AC50 (uM) modified / 1000) turned out to be 23.3 µM.

As to `CCC(=O)OCCc1ccccc1` [2-Phenylethyl propionate], the CC50 at 24 h (AC50 (uM) modified / 1000) was greater than 90 µM.

`CCN(CC)CCNC(=O)c1cc(Br)c(N)cc1OC` [Bromopride]: under “AC50 (uM) modified / 1000”, the CC50 at 24 h is greater than 50 µM.

With `CCCCCCCCCCCCCCCC(=O)NCCO` [Palmitoylethanolamide], the CC50 at 24 h (AC50 (uM) modified / 1000) was greater than 50 µM.

`C=CC(=O)OCCCCCC` [Hexyl acrylate] yielded a CC50 at 24 h (AC50 (uM) modified / 1000) greater than 90 µM.

Molecule `COC(=O)N(C(=O)N1CO[C@@]2(C(=O)OC)Cc3cc(Cl)ccc3C2=N1)c1ccc(OC(F)(F)F)cc1` [Indoxacarb] registered a CC50 at 24 h (AC50 (uM) modified / 1000) greater than 70 µM.

For the setting “AC50 (uM) modified / 1000”, `O=C(O)[C@H](O)[C@@H](O)[C@H](O[C@@H]1O[C@H](CO)[C@H](O)[C@H](O)[C@H]1O)[C@H](O)CO` [Lactobionic acid] registered a CC50 at 24 h greater than 20 µM.

Consider `N[C@@H]1C[C@H]1c1ccccc1` [Tranylcypromine hydrochloride], for which the CC50 at 24 h (AC50 (uM) modified / 1000) is greater than 50 µM.

Turning to `CCN(CC)CCOc1ccc2c(c1)C(=O)c1cc(OCCN(CC)CC)ccc1-2` [Tilorone], the CC50 at 24 h (AC50 (uM) modified / 1000) was greater than 50 µM.

`Cc1cnc(NC(=O)C2=C(O)c3ccccc3S(=O)(=O)N2C)s1` [Meloxicam]: for the setting “AC50 (uM) modified / 1000”, the CC50 at 24 h is greater than 90 µM.

In turn, `CCO` [Ethanol] registered a CC50 at 24 h (AC50 (uM) modified / 1000) greater than 100 µM.

`N#Cc1c2ccccc2cc2ccccc12` [9-Cyanoanthracene]: the CC50 at 24 h (AC50 (uM) modified / 1000) was greater than 90 µM.

On to `CCCCCCCCCCCCCC(=O)OCC(O)CO` (centres unmarked) [Tetradecanoic acid, 2,3-dihydroxypropyl ester], for which the half-maximal cytotoxic concentration (CC50) at 24 h (AC50 (uM) modified / 1000) is greater than 90 µM.

Where the note is “AC50 (uM) modified / 1000”, `CC(=O)Oc1ccccc1C(N)=O` [Acetylsalicylamide] returned a CC50 at 24 h greater than 50 µM.

`CCCC[C@H]1CN(CC2CCOCC2)C(=O)OC12CCN(C1(C)CCN(C(=O)c3c(C)ncnc3C)CC1)CC2` [PharmaGSID_48521] displayed a cytotoxic concentration (CC50) at 24 h (AC50 (uM) modified / 1000) greater than 80 µM.

The molecule `N#CC(c1ccccc1)c1ccccc1` [Diphenylacetonitrile] gave a cytotoxic concentration (CC50) at 24 h (AC50 (uM) modified / 1000, Tox21_110001=Tox21_201556, viability, 1 nM T3 present, 24 h) greater than 90 µM.

Where the note is “AC50 (uM) modified / 1000”, `CC(C)OCCO` [2-Isopropoxyethanol] yielded a CC50 at 24 h greater than 90 µM.

As to `Oc1ccc(Cc2ccc(O)cc2)cc1` [Bis(4-hydroxyphenyl)methane], for the setting “AC50 (uM) modified / 1000”, the CC50 at 24 h was greater than 90 µM.

In the case of `O=[N+]([O-])c1cc(Cl)c(Cl)c(Cl)c1Cl` [2,3,4,5-Tetrachloronitrobenzene], the CC50 at 24 h (AC50 (uM) modified / 1000) worked out at 89.5 µM.

Under “AC50 (uM) modified / 1000”, `CC(=O)c1c(C)cc(C(C)(C)C)cc1C` [4'-tert-Butyl-2',6'-dimethylacetophenone] yielded a CC50 at 24 h greater than 90 µM.

In turn, `O=C(N/N=C/c1ccc([N+](=O)[O-])o1)c1cc([N+](=O)[O-])cc([N+](=O)[O-])c1O` [Nifursol] yielded a CC50 at 24 h (AC50 (uM) modified / 1000) of 32.5 µM.

As for `CC(C)OC(=O)C(C(=O)OC(C)C)=C1SC=CS1` [Malotilate], the CC50 at 24 h (AC50 (uM) modified / 1000) was greater than 50 µM.

On to `COC(C(=O)O)c1ccccc1` (centres unmarked) [Methoxyphenylacetic acid], for which, under “AC50 (uM) modified / 1000”, the CC50 at 24 h was greater than 90 µM.

`CCO[Si](OCC)(OCC)c1ccccc1` [Triethoxy(phenyl)silane] had a CC50 at 24 h (AC50 (uM) modified / 1000) greater than 90 µM.

Under “AC50 (uM) modified / 1000”, `CCCCC(CC)CO` (centres unmarked) [2-Ethyl-1-hexanol] came in with a CC50 at 24 h greater than 90 µM.

With `CC1(C)OC(=O)NC1=O` [Dimethadione], the CC50 at 24 h (AC50 (uM) modified / 1000) was greater than 90 µM.
